The values below come from patent US10350188B2, “Use of Neu1 sialidase inhibitors in the treatment of cancer” (priority 2011, dated 2019).

The target of experiment [1] is T1, sialidase activity associated with TLR ligand treated live BMC-2 macrophage cells (Mus musculus, UniProt O35657).
T1 construct: endogenous in cells; host or cells: BMC-2 macrophage cells
As to conditions: 1-2 mM, compared to LPS positive control; cited from earlier work.

Experiment [2] has as its target T2, Neu1 sialidase (Mus musculus, UniProt O35657). Description: LPS-induced Neu1 sialidase activity in live BMA macrophage cells (4-MUNANA). The experiment is classed as cell-based. The arrangement: endogenous in cells; host or cells: BMA macrophage cells. Here is the method:
TLR-expressing BMA macrophage cells were grown on 12 mm circular glass slides in culture media containing DMEM supplemented with 10% fetal calf serum. […] Fluorescent images were taken after 2-3 minutes using epi-fluorescent microscopy (Zeiss Imager M2, 40× objective).
This recently developed assay was used to detect sialidase activity on the surface of viable cells. […] The inhibitory potency of a series of amide-linked C9 modified DANA (2-deoxy-2,3-dehydro-D-N-acetylneuraminic add) analogues on lipopolysaccharide (LPS)-induced Neu1 sialidase activity was assessed in live BMA macrophage cells.

Experiment [3] deals with T2, Neu1 sialidase. The conditions noted are these: live BMA macrophage cells; clopidogrel bisulfate 280 and 500 μM pre-treatment; LPS 5 μg/mL; oseltamivir phosphate 400 μM; cited from earlier work.
In the next experiment the target is carboxylesterase (Homo sapiens, UniProt P23141). The conditions noted are these: cited from earlier work.
Chain of carboxylesterase (P23141 18-567): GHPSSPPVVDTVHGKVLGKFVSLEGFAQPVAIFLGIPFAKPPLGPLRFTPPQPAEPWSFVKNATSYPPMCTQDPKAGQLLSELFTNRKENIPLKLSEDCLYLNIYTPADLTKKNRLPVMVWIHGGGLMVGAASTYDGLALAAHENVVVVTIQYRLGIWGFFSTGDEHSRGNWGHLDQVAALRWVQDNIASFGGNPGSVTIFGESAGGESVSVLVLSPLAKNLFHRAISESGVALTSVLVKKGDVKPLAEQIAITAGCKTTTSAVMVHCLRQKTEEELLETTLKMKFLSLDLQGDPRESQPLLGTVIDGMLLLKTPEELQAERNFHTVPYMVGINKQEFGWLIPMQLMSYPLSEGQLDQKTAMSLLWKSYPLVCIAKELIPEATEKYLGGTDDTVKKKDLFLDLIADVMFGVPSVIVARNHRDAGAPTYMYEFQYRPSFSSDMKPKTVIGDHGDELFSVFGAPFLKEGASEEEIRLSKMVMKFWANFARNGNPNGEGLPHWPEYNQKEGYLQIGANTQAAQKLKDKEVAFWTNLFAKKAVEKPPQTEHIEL
The subject of experiment [4] is PANC-1 human pancreatic cancer cells implanted in RAG1/Cγ double mutant NOD xenograft mice. Kind of experiment: PANC-1 pancreatic cancer xenograft in RAG1/Cγ double mutant NOD mice. As to conditions: for Liver metastases % Inhibition: vs untreated day 79.
Source text: An immunodeficient mouse model with a double mutation in the combining recombinase activating gene-1 or -2 (RAG1 or RAG2) and common cytokine receptor γ chain (cγ) were used as xenograft mice. […] Mice deficient in both RAG2 and cγ (RAG2−/−/cγ−/−) were generated by inter-crossing and were maintained in SPF isolators in the Animal Care Facility, Queen's University, Kingston, Ontario K7L3N6, Canada. A colony was established in the animal facility. Mice deficient in both RAG1 and cγ (RAG1^−/−×cγ^−/−) on a non-obese diabetic (NOD) genetic background were obtained from the Jackson Laboratory (Bar Harbor, Me.) and a colony was established in the animal facility. All mice were kept under sterile conditions in micro-isolators or air-filtered cages, and were provided with autoclaved food and water. […] They were used between 6 and 8 weeks of age.
Puromycin-resistance eGFP transduced MiaPaCa-2 or PANC-1 cell clones were grown in 75 cm^2 cell culture flask at 80% confluence. The cells were resuspended into solution using TrypLE Express (Gibco) and washed with sterile saline. The cell suspension was centrifuged for 3 min at 900 rpm, and the cell pellet resuspended in sterile saline at a concentration of 5-10×10^6 cells/mL for 1-2×10^6 cells implantation into the right back flank of the mouse. Tumour measurements were taken twice a week. Tumour volumes were determined by (width square/2)×length.
The RAG1/Cγ double mutant xenograft mouse model was implanted with 2×10^6 PANC-1 cells in 0.2 mL in the right back flank.
For a further experiment, the system named is BxPC-3 cells. Description: Cell viability of BxPC-3 pancreatic cancer cells in culture (MTT or WST-1, 72 hrs). The format is cell-based, human. The conditions noted are these: BxPC-3; for Chemo-drug LD50: MTT, 72 hrs. In general terms: Tetrazolium assays rely on reduction of a dye to a coloured formazan, in cell work by metabolically active cells.
Another experiment has as its system PANC-1 cells. Description: Cell viability of PANC-1 pancreatic cancer cells in culture (MTT or WST-1, 72 hrs). The experiment is classed as cell-based, human. As to conditions: PANC-1; for Chemo-drug LD50: MTT, 72 hrs.
The subject of the next experiment is A 2780 cells. Kind of experiment: Cell viability of A 2780 ovarian cancer cells in culture (MTT or WST-1, 72 hrs). The format is cell-based, human. The conditions noted are these: A 2780; for Chemo-drug LD50: WST-1, 72 hrs. As to the method: (§1) A-2780 cells are human ovarian cancer cell line which was established from tumor tissue from an untreated patient with adenocarcinoma. Cells grow as a monolayer and in suspension in spinner cultures.
(§2) All cells were grown at 37° C. in 5% CO2 in culture media containing Dulbecco's Modified Eagle Medium (DMEM) (Gibco, Rockville, Md.) supplemented with 10% fetal calf serum (FCS) (HyClone, Logan, Utah, USA).
(§3) MTT is a colorimetric assay for measuring the activity of enzymes that reduce MTT or closely related dyes (XTT, MTS, WSTs) to formazan dye, giving a purple color. A main application allows the assessment of the viability (cell counting) and the proliferation of cells (cell culture assays). It can also be used to determine cytotoxicity of potential medicinal agents and toxic materials, since those agents would stimulate or inhibit cell viability and growth. MTT (3-(4,5-Dimethylthiazol-2-yl)-2,5-diphenyltetrazolium bromide, a yellow tetrazole), is reduced to purple formazan in living cells. A solubilization solution (usually either dimethyl sulfoxide, an acidified ethanol solution, or a solution of the detergent sodium dodecyl sulphate in diluted hydrochloric acid) is added to dissolve the insoluble purple formazan product into a coloured solution. The absorbance of this coloured solution can be quantified by measuring at a certain wavelength (usually between 500 and 600 nm) by a spectrophotometer. The absorption maximum is dependent on the solvent employed.
(§4) WST-1 (Roche Applied Sciences, Montreal) is a ready-to-use substrate which measures the metabolic activity of viable cells. The WST-1 assay is nonradioactive and can be performed entirely in a microplate. It is suitable for measuring cell proliferation, cell viability or cytotoxicity. The assay is based on the reduction of WST-1 by viable cells. The reaction produces a soluble formazan salt. The procedure involves: Culturing the cells in a 96-well microplate, then incubating them with WST-1 for approx. 0.5-4 h. During this incubation period, viable cells convert WST-1 to a water-soluble formazan dye. Quantitating the formazan dye in the microplate is done with an ELISA plate reader. The absorbance directly correlates with the cell number.

A further experiment has as its system MiaPaCa-2 cells. Description: Cell viability of MiaPaCa-2 pancreatic cancer cells in culture (MTT or WST-1, 72 hrs). The experiment is classed as cell-based, human. The conditions noted are these: MiaPaCa-2; for Chemo-drug LD50: MTT, 72 hrs.
The next experiment relates to A 2780cis cells. Description: Cell viability of A 2780cis ovarian cancer cells in culture (MTT or WST-1, 72 hrs). The format is cell-based, human. As to conditions: A 2780cis; for Chemo-drug LD50: WST-1, 72 hrs. Here is the method:
as §1, §2, §3, §4

In a further experiment the test system is MCF-7 cells. Kind of experiment: Cell viability of MCF-7 breast cancer cells in culture (MTT or WST-1, 72 hrs). The experiment is classed as cell-based, human. As to conditions: MCF-7; for Chemo-drug LD50: WST-1, 72 hrs. Here is the method: (§5) MDA MB-231cells (ATCC® Number: HTB-26™) are human mammary gland breast adenocarcinoma derived from metastatic pleural effusion with epithelial morphology. MCF-7 (ATCC® Number: HTB-22™) are human mammary gland breast adenocarcinoma derived from metastatic pleural effusion with epithelial morphology.
as §2, §3, §4

A further experiment has as its system MDA MB-231 cells. Kind of experiment: Cell viability of MDA MB-231 breast cancer cells in culture (MTT or WST-1, 72 hrs). The format is cell-based, human. The conditions noted are these: MDA MB-231; for Chemo-drug LD50: WST-1, 72 hrs. As to the method:
as §5, §2, §3, §4

The next experiment has as its system Capan-1 cells. Description: Cell viability of Capan-1 pancreatic metastatic cancer cells in culture (MTT or WST-1, 72 hrs). The experiment is classed as cell-based, human. As to conditions: Capan-1; for Chemo-drug LD50: WST-1, 72 hrs. As to the method: CAPAN-1 cells (ATCC® Number: HTB-79™) are human pancreatic cancer cell line with epithelial morphology expressing the 17 beta-estradiol (E2)-binding estrogen receptor and derived from metastatic liver with adenocarcinoma.
as §2, §3, §4

Where [5] appears, read: chemo-drug alone, abraxane 0.5 mg/kg day 78, gemcitabine 30 mg/kg day […].
Where [6] appears, read: day 84, Gemcitabine 30 mg/kg alone.
The mark [7] stands for this setting: day 93, Gemcitabine 30 mg/kg alone.
[8] abbreviates: day 112, Gemcitabine 30 mg/kg alone.
The mark [9] stands for this setting: oseltamivir phosphate 2 mg/kg, alone day 90, with abraxane 0.5 day 78, with gemcitabine 30 day 110.
The mark [10] stands for this setting: oseltamivir phosphate 5 mg/kg, alone day 90, with abraxane 0.5 day 90, with gemcitabine 30 day 109.
The mark [11] stands for this setting: co-treatment oseltamivir phosphate 730 μM.
The mark [12] stands for this setting: co-treatment oseltamivir phosphate 1460 μM.

Take `CCC(CC)[C@H](NC(C)=O)[C@@H]1C[C@@H](C(=O)O)C[C@H]1N=C(N)N` [BCX-1827]: the “Inhibition of LPS induced sialidase activity (in words)” value in [1] is “limited effect”.
As to `CC(=O)N[C@H]1[C@H]([C@H](O)[C@H](O)CO)OC(C(=O)O)=C[C@@H]1O` [DANA, 2-deoxy-2,3-dehydro-N-acetylneuraminic acid], on Neu1 sialidase [2], the “Inhibition of Neu1 sialidase (in words)” value is recorded as “moderate inhibitor of Neu1 sialidase”. For the same compound, in experiment [1], the “Inhibition of LPS induced sialidase activity (in words)” value was “limited effect”.
`COC(=O)[C@H](c1ccccc1Cl)N1CCc2sccc2C1` [clopidogrel]: the “Effect on oseltamivir phosphate's capacity to inhibit LPS induced sialidase activity” value at Neu1 sialidase [3] was “no effect”. Besides, the “Inhibition of hydrolysis of oseltamivir phosphate by carboxylesterase” value on carboxylesterase is reported as at most 90%.
In the case of `Nc1ccn([C@@H]2O[C@H](CO)[C@@H](O)C2(F)F)c(=O)n1` [gemcitabine, Gemcitabine], the “Liver metastases (ave number of nodules)” value in experiment [4] (setting [5]) came out at 12; in [4] (oseltamivir phosphate 2 mg/kg, alone day 90, with abraxane 0.5 mg/kg day 78, with gemcitabine 30 mg/kg day 110), 10; in experiment [4] (oseltamivir phosphate 5 mg/kg, alone day 90, with abraxane 0.5 mg/kg day 90, with gemcitabine 30 mg/kg day 109), 8. Moreover, the “Metastases (size, mm)” value in [4] (setting [5]) is 0.3-1.5 mm; in experiment [4] (setting [9]) it was 0.5-1.2 mm; in experiment [4] (setting [10]), 0.2-1.5 mm. In addition, the Tumour volume is listed as 200 ± 47 (5) mm^3 in [4] (day 79, chemotherapeutic alone (Abraxane 0.5 mg/kg or Gemcitabine 30 mg/kg i.p. once weekly)); 159 ± 52 (5) mm^3 in experiment [4] (setting [6]); 437 ± 140 (3) mm^3 in experiment [4] (setting [7]); 507 ± 357(2) mm^3 in experiment [4] (setting [8]). Moreover, the “% Inhibition To untreated” value in experiment [4] (day 79, chemotherapeutic alone (Abraxane 0.5 or Gemcitabine 30 mg/kg)) was 86%; in experiment [4] (day 79, chemotherapeutic alone (Abraxane 0.5 or Gemcitabine 30 mg/kg), listed as Gemcitabine), 86% (p < 0.0001); in experiment [4] (setting [6]) it was 89%; in experiment [4] (day 84, Gemcitabine 30 mg/kg alone, listed as Gemcitabine), 89% (p < 0.0001); in experiment [4] (setting [7]), 69%; in experiment [4] (day 93, Gemcitabine 30 mg/kg alone, listed as Gemcitabine) it was 69% (p < 0.0001). The “% Inhibition To untreated” value in experiment [4] (setting [8]) is given as 63%; in experiment [4] (day 112, Gemcitabine 30 mg/kg alone, listed as Gemcitabine), 63%. Also, the “Liver metastases % Inhibition” value in experiment [4] (setting [9]) was determined as 76%; in [4] (setting [10]), 81%. The “Chemo-drug LD50” value in the experiment on BxPC-3 cells (setting [11]) is 0.78 µM; in the experiment with BxPC-3 cells (setting [12]), 1 µM; in the experiment on BxPC-3 cells (oseltamivir phosphate 0 μM), 0.78 µM; in the experiment on PANC-1 cells (setting [11]), 1.6 µM; in the experiment with PANC-1 cells (setting [12]) it was 1.5 µM; with PANC-1 cells (oseltamivir phosphate 0 μM), above 26 µM. The “Chemo-drug LD50” value with A 2780 cells (setting [11]) turned out to be 40 µM; with A 2780 cells (oseltamivir phosphate 0 μM) it was 60 µM; in the experiment with MiaPaCa-2 cells (setting [11]), 0.78 µM; with MiaPaCa-2 cells (setting [12]), 0.078 µM; in the experiment on MiaPaCa-2 cells (oseltamivir phosphate 0 μM), 0.78 µM; in the experiment on A 2780cis cells (setting [11]), 40 µM. In addition, the “Chemo-drug LD50” value in the experiment on A 2780cis cells (oseltamivir phosphate 0 μM) was 60 µM; in the experiment on MCF-7 cells (setting [11]), 40 µM; with MCF-7 cells (oseltamivir phosphate 0 μM), 40 µM; with MDA MB-231 cells (setting [11]), 40 µM; in the experiment with MDA MB-231 cells (oseltamivir phosphate 0 μM), 70 µM; in the experiment on Capan-1 cells (setting [11]) it was 30 µM. Also, in the experiment with Capan-1 cells (oseltamivir phosphate 0 μM), the “Chemo-drug LD50” value was determined as 60 µM. The “Chemo-drug sensitivity with oseltamivir phosphate (fold increase)” value in the experiment with BxPC-3 cells (oseltamivir phosphate 730 μM) amounted to 1 fold increase; with BxPC-3 cells (oseltamivir phosphate 1460 μM) it was 0.78 fold increase; in the experiment with PANC-1 cells (oseltamivir phosphate 730 μM), 16 fold increase; in the experiment with PANC-1 cells (oseltamivir phosphate 1460 μM) it was 17 fold increase; in the experiment with A 2780 cells (oseltamivir phosphate 730 μM), 1.5 fold increase; with MiaPaCa-2 cells (oseltamivir phosphate 730 μM), 1 fold increase. Also, the “Chemo-drug sensitivity with oseltamivir phosphate (fold increase)” value in the experiment on MiaPaCa-2 cells (oseltamivir phosphate 1460 μM) is on record as 10 fold increase; in the experiment on A 2780cis cells (oseltamivir phosphate 730 μM) it was 1.5 fold increase; in the experiment on MCF-7 cells (oseltamivir phosphate 730 μM), 1 fold increase; in the experiment with MDA MB-231 cells (oseltamivir phosphate 730 μM) it was 2 fold increase; in the experiment with Capan-1 cells (oseltamivir phosphate 730 μM) it was 2 fold increase.
